# What was measured:
# Format in all cases: cell-based
# NK1 = NK1 (Homo sapiens, UniProt P25103); experiment: Signal transduction (ST), intracellular Ca++ (FLIPR), NK1 antagonistic activity; conditions: read-out: pIC50 NK1 (converted)
# How it was run: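 Confluent cells loaded with 2 μM Fluo3 (1 h, 37 °C, probenecid), preincubated 20 min at RT with antagonist concentration range, then agonist added. Peak Ca++ transient read by FLIPR in Krebs buffer pH 7.4; IC50 by non-linear regression.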
# NK2 = molecular target: T1, NK2 (Homo sapiens, UniProt P21452); experiment: Signal transduction (ST), intracellular Ca++ (FLIPR), NK2; conditions: read-out: pIC50 NK2 (converted)
# T1 sequence (P21452 1-398): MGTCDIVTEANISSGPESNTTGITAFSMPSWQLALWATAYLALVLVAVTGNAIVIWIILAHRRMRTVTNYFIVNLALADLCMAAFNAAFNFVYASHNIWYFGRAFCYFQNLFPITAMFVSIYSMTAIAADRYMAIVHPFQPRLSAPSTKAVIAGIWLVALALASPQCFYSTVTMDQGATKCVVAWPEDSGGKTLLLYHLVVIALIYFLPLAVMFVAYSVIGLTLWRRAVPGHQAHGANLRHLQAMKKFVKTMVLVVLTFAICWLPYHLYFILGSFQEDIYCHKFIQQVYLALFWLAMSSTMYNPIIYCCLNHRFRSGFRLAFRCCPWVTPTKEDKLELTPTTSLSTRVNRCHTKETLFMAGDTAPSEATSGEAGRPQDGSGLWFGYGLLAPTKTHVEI
# Experimental: [The procedure below names another target; the source lists this target under the same test.] This test evaluates in vitro functional NK1 antagonistic activity. For the measurements of intracellular Ca^++ concentrations the cells were grown on 96-well (black wall/transparent bottom) plates from Costar for 2 days until they reached confluence. The cells were loaded with 2 μM Fluo3 in DMEM containing 0.1% BSA and 2.5 mM probenecid for 1 h at 37° C. They were washed 3× with a Krebs buffer (140 mM NaCl, 1 mM MgCl2×6H2O, 5 mM KCl, 10 mM glucose, 5 mM HEPES; 1.25 mM CaCl2; pH 7.4) containing 2.5 mM probenecid and 0.1% BSA (Ca^++-buffer). The cells were preincubated with a concentration range of antagonists for 20 min at RT and Ca^++-signals after addition of the agonists were measured in a Fluorescence Image Plate Reader (FLIPR from Molecular Devices, Crawley, England). The peak of the Ca^++-transient was considered as the relevant signal and the mean values of corresponding wells were analysed as described below.
# The sigmoidal dose response curves were analysed by computerised curve-fitting, using the GraphPad Program. […] For antagonist responses the IC50-value was calculated using non-linear regression.
# The last columns indicates—without being limited therefore—for which the compounds might be most suitable. Of course, since for some neurokinin receptors no data was determined, it is obvious that these compounds might be attributed to another suitable use.
# NK3 = molecular target: T2, NK3 (Homo sapiens, UniProt P29371); experiment: Signal transduction (ST), intracellular Ca++ (FLIPR), NK3; conditions: read-out: pIC50 NK3 (converted)
# T2 sequence (P29371 1-465): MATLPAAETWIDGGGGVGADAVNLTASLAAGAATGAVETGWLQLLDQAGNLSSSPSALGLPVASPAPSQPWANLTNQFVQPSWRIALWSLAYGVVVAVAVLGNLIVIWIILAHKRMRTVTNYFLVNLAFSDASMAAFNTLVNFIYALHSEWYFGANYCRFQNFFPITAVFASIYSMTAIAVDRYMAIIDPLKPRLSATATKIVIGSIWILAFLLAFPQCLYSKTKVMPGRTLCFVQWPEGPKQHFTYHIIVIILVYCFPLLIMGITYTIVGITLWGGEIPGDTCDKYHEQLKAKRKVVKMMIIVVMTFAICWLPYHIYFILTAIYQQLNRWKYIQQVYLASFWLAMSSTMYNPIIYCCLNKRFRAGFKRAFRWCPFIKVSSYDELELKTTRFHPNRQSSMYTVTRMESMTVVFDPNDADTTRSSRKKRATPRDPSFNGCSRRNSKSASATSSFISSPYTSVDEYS
# Chain of NK1 (P25103 whole entry): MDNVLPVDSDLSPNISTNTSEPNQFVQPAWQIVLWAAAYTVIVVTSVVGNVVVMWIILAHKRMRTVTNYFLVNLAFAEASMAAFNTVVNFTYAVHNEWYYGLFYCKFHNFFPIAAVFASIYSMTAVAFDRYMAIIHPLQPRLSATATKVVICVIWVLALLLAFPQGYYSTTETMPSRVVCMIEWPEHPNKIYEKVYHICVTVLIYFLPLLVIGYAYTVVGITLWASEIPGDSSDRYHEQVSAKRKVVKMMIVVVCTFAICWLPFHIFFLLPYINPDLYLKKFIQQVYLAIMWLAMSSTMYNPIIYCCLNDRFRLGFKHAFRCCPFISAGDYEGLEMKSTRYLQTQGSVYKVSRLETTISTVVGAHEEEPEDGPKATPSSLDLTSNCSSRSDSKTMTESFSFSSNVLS
Compound,IC50 (NK1),IC50 (NK2),IC50 (NK3)
"O=C(C1CCOC1)N1CCC(N2CCN(C3CCN(C(=O)c4cc(C(F)(F)F)cc(C(F)(F)F)c4)C(Cc4ccc(Cl)c(Cl)c4)C3)CC2)C1 (single isomer, unassigned) [Compound 290]",3.98 nM,1580 nM,398 nM
"O=C(C1CCOC1)N1CCC(N2CCN(C3CCN(C(=O)c4cc(C(F)(F)F)cc(C(F)(F)F)c4)C(Cc4ccc(Cl)c(Cl)c4)C3)CC2)C1 (single isomer, unassigned) [Compound 330]",3.16 nM,631 nM,398 nM
"O=C(C1CCOC1)N1CCC(N2CCN(C3CCN(C(=O)c4cc(C(F)(F)F)cc(C(F)(F)F)c4)C(Cc4ccc(Cl)c(Cl)c4)C3)CC2)C1 (single isomer, unassigned) [Compound 331]",3.16 nM,2000 nM,251 nM
"Cc1nnsc1C(=O)N1CCC(N2CCN(C3CCN(C(=O)c4cc(C(F)(F)F)cc(C(F)(F)F)c4)C(Cc4ccccc4)C3)CC2)C1 (single isomer, unassigned) [Compound 380]",6.31 nM,7940 nM,1580 nM
"O=C(C1CCCCC1)N1CCC(N2CCN(C3CCN(C(=O)c4cc(C(F)(F)F)cc(C(F)(F)F)c4)C(Cc4ccccc4)C3)CC2)C1 (single isomer, unassigned) [Compound 403]",7.94 nM,2510 nM,2510 nM
O=C(c1cc(C(F)(F)F)cc(C(F)(F)F)c1)N1CC[C@H](N2CCN(C3CCN(c4cnccn4)C3)CC2)C[C@H]1Cc1ccccc1 (stereo partly drawn) [Compound 4],25.1 nM,6310 nM,158 nM
O=C(c1cc(C(F)(F)F)cc(C(F)(F)F)c1)N1CCC(N2CCN(C3CCN(c4ncccn4)C3)CC2)CC1Cc1ccccc1 (stereo not drawn) [Compound 5],31.6 nM,6310 nM,631 nM
Cc1ccccc1C(=O)N1CCC(N2CCN([C@H]3CCN(C(=O)c4cc(C(F)(F)F)cc(C(F)(F)F)c4)[C@H](Cc4ccccc4)C3)CC2)C1 (stereo partly drawn) [Compound 13],25.1 nM,3980 nM,200 nM
COc1ccccc1C(=O)N1CCC(N2CCN([C@H]3CCN(C(=O)c4cc(C(F)(F)F)cc(C(F)(F)F)c4)[C@H](Cc4ccccc4)C3)CC2)C1 (stereo partly drawn) [Compound 14],7.94 nM,5010 nM,316 nM
O=C(c1ccccc1F)N1CCC(N2CCN([C@H]3CCN(C(=O)c4cc(C(F)(F)F)cc(C(F)(F)F)c4)[C@H](Cc4ccccc4)C3)CC2)C1 (stereo partly drawn) [Compound 16],31.6 nM,5010 nM,2510 nM
O=C(c1ccccc1Cl)N1CCC(N2CCN([C@H]3CCN(C(=O)c4cc(C(F)(F)F)cc(C(F)(F)F)c4)[C@H](Cc4ccccc4)C3)CC2)C1 (stereo partly drawn) [Compound 17],15.8 nM,7940 nM,251 nM
Cc1cccc(C(=O)N2CCC(N3CCN([C@H]4CCN(C(=O)c5cc(C(F)(F)F)cc(C(F)(F)F)c5)[C@H](Cc5ccccc5)C4)CC3)C2)c1C (stereo partly drawn) [Compound 19],39.8 nM,7940 nM,398 nM
Cn1ccc(C(=O)N2CCC(N3CCN([C@H]4CCN(C(=O)c5cc(C(F)(F)F)cc(C(F)(F)F)c5)[C@H](Cc5ccccc5)C4)CC3)C2)c1 (stereo partly drawn) [Compound 23],31.6 nM,3160 nM,501 nM
Cn1cccc1C(=O)N1CCC(N2CCN([C@H]3CCN(C(=O)c4cc(C(F)(F)F)cc(C(F)(F)F)c4)[C@H](Cc4ccccc4)C3)CC2)C1 (stereo partly drawn) [Compound 24],25.1 nM,6310 nM,251 nM
O=C(c1cn[nH]c1)N1CCC(N2CCN([C@H]3CCN(C(=O)c4cc(C(F)(F)F)cc(C(F)(F)F)c4)[C@H](Cc4ccccc4)C3)CC2)C1 (stereo partly drawn) [Compound 25],20 nM,5010 nM,5010 nM
O=C(c1cnccn1)N1CCC(N2CCN([C@H]3CCN(C(=O)c4cc(C(F)(F)F)cc(C(F)(F)F)c4)[C@H](Cc4ccccc4)C3)CC2)C1 (stereo partly drawn) [Compound 30],31.6 nM,3980 nM,1000 nM
O=C(c1ccoc1)N1CCC(N2CCN([C@H]3CCN(C(=O)c4cc(C(F)(F)F)cc(C(F)(F)F)c4)[C@H](Cc4ccccc4)C3)CC2)C1 (stereo partly drawn) [Compound 34],20 nM,3160 nM,316 nM
O=C(c1ccco1)N1CCC(N2CCN([C@H]3CCN(C(=O)c4cc(C(F)(F)F)cc(C(F)(F)F)c4)[C@H](Cc4ccccc4)C3)CC2)C1 (stereo partly drawn) [Compound 35],25.1 nM,3980 nM,200 nM
O=C(c1ccsc1)N1CCC(N2CCN([C@H]3CCN(C(=O)c4cc(C(F)(F)F)cc(C(F)(F)F)c4)[C@H](Cc4ccccc4)C3)CC2)C1 (stereo partly drawn) [Compound 41],15.8 nM,1580 nM,200 nM
Cc1ccc(C(=O)N2CCC(N3CCN([C@H]4CCN(C(=O)c5cc(C(F)(F)F)cc(C(F)(F)F)c5)[C@H](Cc5ccccc5)C4)CC3)C2)s1 (stereo partly drawn) [Compound 43],25.1 nM,7940 nM,631 nM
O=C(c1cc(Cl)sc1Cl)N1CCC(N2CCN([C@H]3CCN(C(=O)c4cc(C(F)(F)F)cc(C(F)(F)F)c4)[C@H](Cc4ccccc4)C3)CC2)C1 (stereo partly drawn) [Compound 44],50.1 nM,6310 nM,631 nM

# More lines, now with the values ahead:
IC50 (NK1),IC50 (NK2),IC50 (NK3),Compound
10 nM,3160 nM,794 nM,"O=C(C1CCCCC1)N1CCC(N2CCN(C3CCN(C(=O)c4cc(C(F)(F)F)cc(C(F)(F)F)c4)C(Cc4ccc(F)c(F)c4)C3)CC2)C1 (single isomer, unassigned) [Compound 357]"
7.94 nM,2000 nM,631 nM,"CC(C)(C)C(=O)N1CCC(N2CCN(C3CCN(C(=O)c4cc(C(F)(F)F)cc(C(F)(F)F)c4)C(Cc4ccc(F)c(F)c4)C3)CC2)C1 (single isomer, unassigned) [Compound 364]"
7.94 nM,2510 nM,501 nM,"CC(C)(C)C(=O)N1CCC(N2CCN([C@@H]3CCN(C(=O)c4cc(C(F)(F)F)cc(C(F)(F)F)c4)[C@H](Cc4ccc(F)c(F)c4)C3)CC2)C1 (single isomer, unassigned) [Compound 365]"
6.31 nM,2000 nM,100 nM,"Cn1cccc1C(=O)N1CCC(N2CCN(C3CCN(C(=O)c4cc(C(F)(F)F)cc(C(F)(F)F)c4)C(Cc4ccc(F)c(F)c4)C3)CC2)C1 (single isomer, unassigned) [Compound 366]"
10 nM,1260 nM,1580 nM,"Cn1cccc1C(=O)N1CCC(N2CCN(C3CCN(C(=O)c4cc(C(F)(F)F)cc(C(F)(F)F)c4)C(Cc4ccc(F)c(F)c4)C3)CC2)C1 (single isomer, unassigned) [Compound 367]"
10 nM,3160 nM,3160 nM,"Cn1cccc(C(=O)N2CCC(N3CCN(C4CCN(C(=O)c5cc(C(F)(F)F)cc(C(F)(F)F)c5)C(Cc5ccc(F)c(F)c5)C4)CC3)C2)c1=O (single isomer, unassigned) [Compound 368]"
12.6 nM,5010 nM,398 nM,O=C(c1cc(F)ccc1F)N1CCC(N2CCN([C@H]3CCN(C(=O)c4cc(C(F)(F)F)cc(C(F)(F)F)c4)[C@H](Cc4ccccc4)C3)CC2)C1 (stereo partly drawn) [Compound 21]
10 nM,1580 nM,158 nM,Cc1cc(C(=O)N2CCC(N3CCN([C@H]4CCN(C(=O)c5cc(C(F)(F)F)cc(C(F)(F)F)c5)[C@H](Cc5ccccc5)C4)CC3)C2)n(C)n1 (stereo partly drawn) [Compound 26]
15.8 nM,631 nM,316 nM,Cc1cc(C(=O)N2CCC(N3CCN([C@H]4CCN(C(=O)c5cc(C(F)(F)F)cc(C(F)(F)F)c5)[C@H](Cc5ccccc5)C4)CC3)C2)n(C(C)(C)C)n1 (stereo partly drawn) [Compound 27]
